Assay results reported in patent publication US20120035161A1, “Novel Compositions and Methods of Treating Diseases Using the Same” (CORRIDOR PHARMACEUTICALS, INC., priority 2006, published 2012).

Tests used:
[1] = system: Aspergillus fumigatus-based mouse asthma model; assay: Aspergillus fumigatus-based mouse asthma model, lung resistance; assay type: in vivo; details: 20 mg/ml, intraperitoneally; for Lung resistance: A. fumigatus insult, day 29
Method: Compounds of the invention were also tested for efficiacy in an asthma model.
A cohort of mice was administered intraperitoneal injections of Aspergillus fumigatus on days 0, 14, 26, 27, and 28. Lung resistance was tested on day 29 immediately following a tracheotomy/methacholine procedure. Animals receiving dexamethasone were administered dexamethasone on days 26, 27 and 28. Animals receiving a compound of the invention were administered the compound just hours before the lung resistance test. As a control, all test compounds, as well as dexamethasone, were also administered to mice in the absence of an A. fumigatus insult.

[2] = target: T1, Serotonin (5-Hydroxytryptamine) 5-HT1B (Rattus norvegicus, UniProt P28564); assay: Assay 271200 radioligand binding, 5-HT1B; design: species or system Wistar Rat
T1 construct: from tissue
Method: (§1) The methods employed in this study have been adapted from the scientific literature to maximize reliability and reproducibility. Reference standards were run as an integral part of each assay to ensure the validity of the results obtained. Assays were performed under conditions as described below. Where presented, IC50 values were determined by a non-linear, least squares regression analysis using the Data Analysis Toolbox (MDL Information Systems, San Leandro, Calif., USA). Where inhibition constants (Ki) are presented, the Ki values were calculated using the equation of Cheng and Prusoff (Cheng, Y., Prusoff, W. H., Biochem. Pharmacol. 22:3099-3108, 1973) using the observed IC50 of the tested compound, the concentration of radioligand employed in the assay, and historical values for the KD of the ligand. Where presented, the Hill coefficient (nu), defining the slope of the competitive binding curve, was calculated using the Data Analysis Toolbox.

TNF-α = assay: Model of LPS-mediated cytokine production, serum TNF-α; assay type: in vivo, CD1:ICR mice; details: 10 mg/kg
Method: (§2) Both ICI-685 and ICI-735 were formulated in water. For the time course study, both drugs were formulated at a concentration of 1 mg/ml and dosed 10 ml/kg to produce a dose of 10 mg/kg. For the dose-response study, drug was formulated at concentrations of 0.05, 0.2 and 0.5 mg/ml and dosed at a volume of 10 ml/kg to produce doses of 0.5, 2 and 5 mg/kg, respectively. Animals were dosed IV or IP.
CD1:ICR mice were obtained from Harlan (Indianapolis, Ind.) at 6 weeks of age. Animals were housed 5 per cage, kept on a 12 hr light dark cycle and fed food and water ad libitum. Animals were tested at 8-10 weeks of age.
(§3) Lipopolysaccharide (heat killed E. coli 0127:B5; Sigma Aldrich) was prepared in distilled water at a concentration of 0.025 mg/ml. LPS was dosed at a volume of 10 ml/kg (IP) to produce a final dose of 0.25 mg/kg (approximately 7.5 μg/mouse). Drugs were dosed prior to LPS administration as indicated elsewhere herein. Blood was collected by retro-orbital eye bleed 90 minutes after LPS administration, Serum was prepared from blood and TNF-α and IL-1β levels were measured by using the OPT-EIA mouse TNF-α and IL-1β ELISA kits (BD Biosciences) as per directions of the manufacturer.
The first study was designed to determine the optimal route of administration and the optimal pre-treatment time. Two pre-dose time course studies were conducted. The first (Study 1A) was conducted with 3 pre-dose time points (2, 6 and 18 hrs). The second was conducted at 0, 1 and 2 hr predose time points. For both studies, drug was dosed IP or IV.
Using data from the first study, a second study was conducted that was designed to measure dose-response activity of each compound. Compounds were tested at doses of […]., 2.0 and 5 mg/kg using the route and pre-treatment time that produced the best activity.
as §2, with “Compounds ICI-715, ICI-824, ICI-953” for “Both ICI-685”, “ICI-954” for “ICI-735”, “study,” for “study, both”, “drugs were” for “drug was”
as §3, with “mg/ml,” for “mg/ml.”, “[…]).” for “μg/mouse).”, “above.” for “elsewhere herein.”, “administration.” for “administration,”
The first study was designed to determine the optimal route of administration and the optimal pre-treatment time. One pre-dose time course was conducted (for all compounds) with compounds administered at 0, 1 and 2 hrs prior to LPS treatment. For both studies, drug was dosed IP or IV. The IP study and IV study were conducted on separate days.
Using data from the first study, a second study was conducted that was designed to measure dose-response activity of each compound. Compounds were tested at doses of 0.5, 2.0 and 5 mg/kg using the route and pre-treatment time that produced the best activity.

[3] = system: Serotonin (5-Hydroxytryptamine) 5-HT2, Non-Selective; assay: Assay 271600 radioligand binding, 5-HT2 non-selective; design: species or system Wistar Rat
Method: as §1

[4] = target: T2, Serotonin (5-Hydroxytryptamine) 5-HT1A (Homo sapiens, UniProt P08908); assay: Radioligand binding, 5-HT1A ([3H] 8-OH-DPAT)
T2 construct: expressed in transfected cells; host or cells: CHO cells
T2 sequence (P08908 1-422): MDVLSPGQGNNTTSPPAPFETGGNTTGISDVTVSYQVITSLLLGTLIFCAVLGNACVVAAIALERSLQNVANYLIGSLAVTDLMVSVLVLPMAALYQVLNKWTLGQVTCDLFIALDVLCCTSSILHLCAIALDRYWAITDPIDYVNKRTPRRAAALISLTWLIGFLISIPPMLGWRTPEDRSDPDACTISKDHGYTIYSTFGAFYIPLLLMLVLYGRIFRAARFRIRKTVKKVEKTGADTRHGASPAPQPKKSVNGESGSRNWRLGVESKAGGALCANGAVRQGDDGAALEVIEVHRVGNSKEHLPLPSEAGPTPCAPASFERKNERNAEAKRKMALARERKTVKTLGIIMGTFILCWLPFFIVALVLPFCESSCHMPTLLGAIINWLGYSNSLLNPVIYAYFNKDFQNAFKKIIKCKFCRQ
Method: as §1

[5] = system: Serotonin (5-Hydroxytryptamine) 5-HT1, Non-Selective; assay: Assay 271000 radioligand binding, 5-HT1 non-selective; design: species or system Wistar Rat
Method: as §1

[6] = system: rheumatoid arthritis (RA) animal model; assay: Clinical arthritis score in mice sensitized with collagen injections; assay type: in vivo
Method: FIGS. 26-28 illustrate the effect of various compounds of the invention on the clinical arthritis score of mice treated with various compounds of the invention.
Additional testing of the effectiveness of compounds ICI-685, ICI-735 and ICI-847 at higher and lower concentrations were conducted, as illustrated in FIG. 29.

T1 sequence (P28564 whole entry): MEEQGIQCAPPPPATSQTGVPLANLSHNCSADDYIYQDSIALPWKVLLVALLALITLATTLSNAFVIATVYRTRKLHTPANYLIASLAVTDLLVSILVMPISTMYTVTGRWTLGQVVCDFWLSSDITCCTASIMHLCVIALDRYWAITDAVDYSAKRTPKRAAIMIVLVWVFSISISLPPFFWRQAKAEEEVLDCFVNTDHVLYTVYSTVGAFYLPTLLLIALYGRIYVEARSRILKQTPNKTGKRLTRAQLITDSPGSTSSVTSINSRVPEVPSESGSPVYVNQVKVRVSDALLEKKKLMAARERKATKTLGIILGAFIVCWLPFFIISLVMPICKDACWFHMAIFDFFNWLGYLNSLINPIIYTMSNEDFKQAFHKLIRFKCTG

SMILES | Lung resistance [1] | inhibition at 0.1 µM [2] | inhibition at 10 µM [2] | inhibition at 10 mg/kg (TNF-α; Mus musculus, second pre-dose time course study, read-out: inhibition of TNFα) | inhibition of TNFα levels (TNF-α; first time course, 2 hr pretreatment period, IV administration) | inhibition of LPS-stimulated TNFα secretion (TNF-α; pre-dose time course, IV or IP) | % INHIBITION ([3]; 0.1 μM) | % INHIBITION ([3]; 10 μM) | inhibition at 0.1 µM [4] | inhibition at 10 µM [4] | % INHIBITION ([5]; 0.1 μM) | % INHIBITION ([5]; 10 μM) | decreasing lung resistance compared with dexamethasone [1] | effectiveness at treating RA compared with dexamethasone ([6]; 30 mg/kg, FIG. 29) | clinical arthritis score compared with dexamethasone ([6]; orally 10 mg/kg daily, about 21 days, FIG. 26)
C[C@@H]1C[C@H]2[C@@H]3CCC4=CC(=O)C=C[C@]4(C)[C@@]3(F)[C@@H](O)C[C@]2(C)[C@@]1(O)C(=O)CO [Dexamethasone, reference compound] | 7.75 cm H2O/ml/s |  |  |  |  |  |  |  |  |  |  |  |  |  | 
FC(F)(F)c1ccc2c(c1)N(CCCN1CCNCC1)c1ccccc1S2 [ICI-685] | 12 cm H2O/ml/s | 6% | 10% | 70% | did not inhibit | inhibited | 31% | 82% | 1% | 26% | −3% | 32% |  |  | 
NCCCN1CCC(CCCN2c3ccccc3Sc3ccc(C(F)(F)F)cc32)CC1 [ICI-847] | 7.25 cm H2O/ml/s | -5% | -33% |  |  |  | 3% | 82% | -8% | 74% | −11% | −7% | at least as effective as dexamethasone | as effective for the length of the study as is dexamethasone | as effective as dexamethasone
